Test results reported in patent US20230295152A1 (SENDA BIOSCIENCES, INC., priority 2019, published 2023).

Biological target: T1, AHR (Homo sapiens, UniProt P35869)
T1 construct: other cell line with a DRE-luciferase reporter stably transfected; endogenous in cells; host or cells: HepG2 AhR-Lucia reporter cells
T1 sequence (P35869 11-848): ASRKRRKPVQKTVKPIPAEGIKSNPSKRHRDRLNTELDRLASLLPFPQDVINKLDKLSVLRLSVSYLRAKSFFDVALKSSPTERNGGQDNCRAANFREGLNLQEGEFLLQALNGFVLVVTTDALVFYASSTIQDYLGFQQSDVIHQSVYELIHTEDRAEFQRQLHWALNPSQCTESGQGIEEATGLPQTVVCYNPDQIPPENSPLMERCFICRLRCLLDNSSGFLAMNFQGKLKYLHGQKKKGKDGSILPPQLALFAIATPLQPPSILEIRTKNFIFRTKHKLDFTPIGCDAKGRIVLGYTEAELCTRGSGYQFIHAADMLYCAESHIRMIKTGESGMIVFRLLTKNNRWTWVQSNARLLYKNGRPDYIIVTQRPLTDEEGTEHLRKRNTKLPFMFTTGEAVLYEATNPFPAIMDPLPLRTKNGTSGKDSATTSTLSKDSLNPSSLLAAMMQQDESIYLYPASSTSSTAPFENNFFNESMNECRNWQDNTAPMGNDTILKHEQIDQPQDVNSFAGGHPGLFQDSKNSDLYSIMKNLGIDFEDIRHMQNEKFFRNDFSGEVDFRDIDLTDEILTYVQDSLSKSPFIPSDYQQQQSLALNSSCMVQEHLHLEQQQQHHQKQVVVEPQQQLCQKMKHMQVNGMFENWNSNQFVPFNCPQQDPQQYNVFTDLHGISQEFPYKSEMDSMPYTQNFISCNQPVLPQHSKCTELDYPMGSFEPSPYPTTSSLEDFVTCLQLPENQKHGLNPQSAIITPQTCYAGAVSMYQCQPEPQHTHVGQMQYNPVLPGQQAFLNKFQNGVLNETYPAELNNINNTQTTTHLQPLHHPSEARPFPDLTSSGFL
Assay: DRE-Luciferase Reporter Assay, HepG2 AhR-Lucia reporter cells
Assay type: cell-based
Settings: with AHR activating ligand at EC50, read-out: HepG2-Luc IC50
Excerpt: AHR binds to Dioxin Responsive Elements (DRE) upstream of genes that it activates. One measure of AHR activity is activation of a reporter gene, such as luciferase, downstream of one or multiple DRE elements. Luciferase activity will reflect activation and inhibition of AHR in the cells expressing his reporter. 20000 Human HepG2 liver carcinoma—AhR-Lucia reporter cells or Human HT29 colon adenocarcinoma—AhR reporter cells or other cell line with a DRE-luciferase reporter stably transfected were plated in Eagle's Minimal Essential Medium, 10% heat-inactivated FBS, 1× non-essential amino acids Pen-Strep (10,000 U/mL) and Normocin (100 ug/mL) in plates (96-well, 384-well or other plates) and incubated overnight at 37° C. in a CO2 incubator and treated with and without AhR antagonists at a log dilution starting at 100 uM.
After 1 hr that cells were plated an AHR activating ligand, such as TCDD, kynurenine, ITE (2-(1H-indole-3-ylcarbonyl)-4-thiazolecarboxylic methyl ester), VAF347, BNF (beta-naphthoflavone), FICZ (6-formylindolo(3,2-b) carbazole) or other AHR ligands at their specific EC50 concentration, were added to the cells with or without AHR antagonist.
Cells were incubated for 24 or 48 hours or another time point and then, supernatant was analyzed for determination of luciferase activity as a read-out of the AHR activation or inhibition. Luciferase was measured with the commercial kit QUANTI-Luc™ assay solution kit from Invivogen following the manufacturer's instructions.
The level of luciferase with only agonist ligand added was the maximum signal while the luciferase with […] was the minimum signal. IC50 values were determined as the concentration which inhibits half of the luciferase activity.

In the case of `O=c1c2cc(-c3ccc(C(F)(F)F)nc3)nc(-c3cccnc3)c2ncn1[C@@H]1CCS(=O)(=O)C1` [Compound 107, (R)-3-(1,1-dioxidotetrahydrothiophen-3-yl)-8-(pyridin-3-yl)-6-(6-(trifluoromethyl)pyridin-3-yl)pyrido[3,4-d]pyrimidin-4(3H)-one], the IC50 is reported as under 100 nM.

Work on `C[C@@H](O)Cn1cnc2c(-c3cnn(C)c3)nc(-c3ccc(C(F)(F)F)nc3)cc2c1=O` [Compound 108, (R)-3-(2-hydroxypropyl)-8-(1-methyl-1H-pyrazol-4-yl)-6-(6-(trifluoromethyl)pyridin-3-yl)pyrido[3,4-d]pyrimidin-4(3H)-one] yielded an IC50 of under 100 nM.

For `O=c1c2cc(-c3ccc(C(F)(F)F)nc3)nc(-c3cccnc3)c2ncn1-c1cccnc1` [Compound 118, 3,8-di(pyridin-3-y1)-6-(6-(trifluoromethyl)pyridin-3-yl)pyrido[3,4-d]pyrimidin-4(3H)-one], the IC50 was under 100 nM.

`O=c1[nH]cnc2c(-c3cccnc3)nc(-c3ccc(C(F)(F)F)nc3)cc12` [Compound 119, 8-(pyridin-3-y1)-6-(6-(trifluoromethyl)pyridin-3-yl)pyrido[3,4-d]pyrimidin-4(3H)-one] gave an IC50 of under 100 nM.

Compound `O=c1c2cc(-c3ccc(C4CC4)nc3)nc(-c3cccnc3)c2ncn1C[C@@H](O)C(F)(F)F` [Compound 121, (R)-6-(6-cyclopropylpyridin-3-yl)-8-(pyridin-3-yl)-3-(3,3,3-trifluoro-2-hydroxypropyl)pyrido[3,4-d]pyrimidin-4(3H)-one] has an IC50 of under 100 nM.

`COC(=O)[C@H](C)n1cnc2c(-c3cccnc3)nc(-c3ccc(C(F)(F)F)nc3)cc2c1=O` [Compound 127, Methyl (S)-2-(4-oxo-8-(pyridin-3-yl)-6-(6-(trifluoromethyl)pyridin-3-yl)pyrido[3,4-d]pyrimidin-3(4H)-yl)propanoate] gave an IC50 of under 100 nM.

Compound `CN1CC(O)C(n2cnc3c(-c4cccnc4)nc(-c4ccc(Cl)cc4)cc3c2=O)C1` (stereo not shown) [Compound 128, 6-(4-chlorophenyl)-3-(4-hydroxy-1-methylpyrrolidin-3-yl)-8-(pyridin-3-yl)pyrido[3,4-d]pyrimidin-4(3H)-one] has an IC50 of under 100 nM.

For `Cn1cc(-c2nc(-c3ccc(C(F)(F)F)nc3)cc3c(=O)n([C@@H]4COC[C@@H]4O)cnc23)cn1` [Compound 130, 3-((3R,4R)-4-hydroxytetrahydrofuran-3-yl)-8-(1-methyl-1H-pyrazol-4-yl)-6-(6-(trifluoromethyl)pyridin-3-yl)pyrido[3,4-d]pyrimidin-4(3H)-one], the IC50 was under 100 nM.

Work on `Cn1cc(-c2nc(-c3ccc(Cl)cc3)cc3c(=O)n([C@@H]4COC[C@@H]4O)cnc23)cn1` [Compound 131, 6-(4-chlorophenyl)-3-((3R,4R)-4-hydroxytetrahydrofuran-3-yl)-8-(1-methyl-1H-pyrazol-4-yl)pyrido[3,4-d]pyrimidin-4(3H)-one] yielded an IC50 of under 100 nM.

In the case of `O=c1c2cc(-c3ccc(C(F)(F)F)nc3)nc(-c3cccnc3)c2ncn1C1CCCC1` [Compound 132, 3-cyclopentyl-8-(pyridin-3-yl)-6-(6-(trifluoromethyl)pyridin-3-yl)pyrido[3,4-d]pyrimidin-4(3H)-one], the IC50 is reported as under 100 nM.

For `O=c1c2cc(-c3ccc(C(F)(F)F)nc3)nc(-c3cccnc3)c2ncn1-c1ccccc1` [Compound 133, 3-phenyl-8-(pyridin-3-yl)-6-(6-(trifluoromethyl)pyridin-3-yl)pyrido[3,4-d]pyrimidin-4(3H)-one], the IC50 was under 100 nM.

`Cn1cc(-c2nc(-c3ccc(C4CC4)nc3)cc3c(=O)n(C[C@@H](O)C(F)(F)F)cnc23)cn1` [Compound 135, (R)-6-(6-cyclopropylpyridin-3-yl)-8-(1-methyl-1H-pyrazol-4-yl)-3-(3,3,3-trifluoro-2-hydroxypropyl)pyrido[3,4-d]pyrimidin-4(3H)-one] showed an IC50 of under 100 nM.

In the case of `Cn1cc(-c2nc(-c3ccc(C(F)(F)F)cn3)cc3c(=O)n([C@H]4COC[C@@H]4O)cnc23)cn1` [Compound 137, 3-((3S,4R)-4-hydroxytetrahydrofuran-3-yl)-8-(1-methyl-1H-pyrazol-4-yl)-6-(5-(trifluoromethyl)pyridin-2-yl)pyrido[3,4-d]pyrimidin-4(3H)-one], the IC50 is reported as under 100 nM.
